What was measured:
Bacillus subtilis = test: Antimicrobial activity against Bacillus subtilis at 100 ug/disk by standard disk assay; type: functional; conditions: read-out: IZ
Helicoverpa zea = test: Toxicity against Helicoverpa zea larvae assessed as weight gain relative to control; type: organism-based; conditions: in vivo
Carpophilus = test: Toxicity against Carpophilus hemipterus assessed as feeding reduction at 200 ppm relative to control; type: organism-based; parameters: scale not given: the % may be the effect or the level left; conditions: in vivo

With `COc1c(C/C=C(\C)CO)c(-c2c[nH]c3ccccc23)c(OC)c(O)c1-c1c[nH]c2ccccc12` [OCHRINDOLE B] the zone of inhibition at 100 µg/disc (Bacillus subtilis) was 15 mm.
In the case of `COc1c(CC=C(C)C)c(-c2c[nH]c3ccccc23)c(OC)c(O)c1-c1c[nH]c2ccccc12` [OCHRINDOLE A], the Activity (Helicoverpa zea) is reported as 30%, the zone of inhibition at 100 µg/disc (Bacillus subtilis) is reported as 15 mm and the Activity (Carpophilus) is reported as 20%.
With `CC(C)=CCC1=C(c2c[nH]c3ccccc23)C(=O)C(O)=C(c2c[nH]c3ccccc23)C1=O` [OCHRINDOLE D] the zone of inhibition at 100 µg/disc (Bacillus subtilis) was 15 mm.
For `COc1c(CC=C(C)C)c(-c2c[nH]c3ccccc23)c(O)c(O)c1-c1c[nH]c2ccccc12` [OCHRINDOLE C], the zone of inhibition at 100 µg/disc (Bacillus subtilis) was 15 mm.

Reference: ChEMBL document CHEMBL1149067, “Ochrindoles A-D: new bis-indolyl benzenoids from the sclerotia of Aspergillus ochraceus NRRL 3519” (J Nat Prod, 1994)
